Columns and labels:
Assay in all cases: relative viability (nuclei count vs DMSO), 5 days (fraction); higher = more cells survive
Tipifarnib + Foretinib = compound: Cn1cncc1[C@@](N)(c1ccc(Cl)cc1)c1ccc2c(c1)c(-c1cccc(Cl)c1)cc(=O)n2C [Tipifarnib] + COc1cc2c(Oc3ccc(NC(=O)C4(C(=O)Nc5ccc(F)cc5)CC4)cc3F)ccnc2cc1OCCCN1CCOCC1 [Foretinib] (partner 0.25 µM)
In short: (§1)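 Relative viability is defined as nuclei in treated wells over nuclei in vehicle wells. Duplicate plates were run and medians reported. Lung cancer cell lines in 1536-well plates were dosed by pin tool one day after seeding, with one drug or with a fixed anchor-drug dose plus five library-drug doses (not always all listed) in √10 steps, and nuclei were counted after 5 days.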

Tipifarnib + Alpelisib = compound: Cn1cncc1[C@@](N)(c1ccc(Cl)cc1)c1ccc2c(c1)c(-c1cccc(Cl)c1)cc(=O)n2C [Tipifarnib] + Cc1nc(NC(=O)N2CCC[C@H]2C(N)=O)sc1-c1ccnc(C(C)(C)C(F)(F)F)c1 [Alpelisib] (partner 2 µM)
In short: as §1

Tipifarnib + Pemetrexed = compound: Cn1cncc1[C@@](N)(c1ccc(Cl)cc1)c1ccc2c(c1)c(-c1cccc(Cl)c1)cc(=O)n2C [Tipifarnib] + Nc1nc2[nH]cc(CCc3ccc(C(=O)N[C@@H](CCC(=O)O)C(=O)O)cc3)c2c(=O)[nH]1 [Pemetrexed] (partner 0.2 µM)
In short: as §1

Tipifarnib + Olaparib = compound: Cn1cncc1[C@@](N)(c1ccc(Cl)cc1)c1ccc2c(c1)c(-c1cccc(Cl)c1)cc(=O)n2C [Tipifarnib] + O=C(c1cc(Cc2n[nH]c(=O)c3ccccc23)ccc1F)N1CCN(C(=O)C2CC2)CC1 [Olaparib] (partner 8 µM)
In short: as §1

Cell Line	relative viability (Tipifarnib + Foretinib; first compound 0.01 µM)	relative viability (Tipifarnib + Foretinib; first compound 0.03162 µM)	relative viability (Tipifarnib + Foretinib; first compound 0.1 µM)	relative viability (Tipifarnib + Foretinib; first compound 0.3162 µM)	relative viability (Tipifarnib + Foretinib; first compound 1 µM)	relative viability (Tipifarnib + Alpelisib; first compound 0.01 µM)	relative viability (Tipifarnib + Alpelisib; first compound 0.03162 µM)	relative viability (Tipifarnib + Alpelisib; first compound 0.1 µM)	relative viability (Tipifarnib + Alpelisib; first compound 0.3162 µM)	relative viability (Tipifarnib + Alpelisib; first compound 1 µM)	relative viability (Tipifarnib + Pemetrexed; first compound 0.01 µM)	relative viability (Tipifarnib + Pemetrexed; first compound 0.03162 µM)	relative viability (Tipifarnib + Pemetrexed; first compound 0.1 µM)	relative viability (Tipifarnib + Pemetrexed; first compound 0.3162 µM)	relative viability (Tipifarnib + Pemetrexed; first compound 1 µM)	relative viability (Tipifarnib + Olaparib; first compound 0.01 µM)	relative viability (Tipifarnib + Olaparib; first compound 0.03162 µM)	relative viability (Tipifarnib + Olaparib; first compound 0.1 µM)	relative viability (Tipifarnib + Olaparib; first compound 0.3162 µM)	relative viability (Tipifarnib + Olaparib; first compound 1 µM)
NCI-H1755	0.88	0.889	0.908	0.849	0.456	0.916	0.848	0.868	0.804	0.808	0.41	0.524	0.446	0.474	0.425	0.869	0.86	0.875	0.891	0.898
NCI-H2087	0.999	0.371	0.333	0.292	0.3	1.17	0.635	0.3	0.371	0.406	0.58	0.569	0.383	0.326	0.373	0.538	0.499	0.341	0.281	0.275
NCI-H2228	1.04	0.815	0.636	0.495	0.672	0.997	0.475	0.473	0.537	0.371	0.364	0.34	0.361	0.296	0.333	0.84	0.523	0.471	0.386	0.478
NCI-H727	1.04	0.875	0.795	0.976	0.944	0.683	0.516	0.569	0.496	0.513	–	–	–	–	–	0.702	0.685	0.866	0.802	0.901
NCI-H650	1.21	0.999	0.934	0.749	0.704	1.07	0.988	0.827	0.661	0.6	1.02	0.917	0.846	0.626	0.36	0.543	0.394	0.376	0.334	0.303
NCI-H520	0.978	0.614	0.681	0.506	0.351	1.11	0.823	0.845	0.458	0.471	0.726	0.652	0.574	0.511	0.528	0.351	0.348	0.318	0.293	0.273
EBC-1	0.103	0.0929	0.0996	0.113	0.0971	0.697	0.371	0.36	0.331	0.274	–	–	–	–	–	0.648	0.411	0.332	0.228	0.229
NCI-H661	1.03	1.03	0.936	0.793	0.83	0.648	0.901	0.399	0.598	0.446	0.881	0.849	0.786	0.809	0.755	0.769	0.738	0.661	0.605	0.617
NCI-H1299	1.06	1.04	1	0.947	0.979	1.04	1.04	0.971	0.973	0.941	–	–	–	–	–	0.984	0.932	0.973	0.791	0.783
LK-2	1.15	1.02	1.03	0.578	0.726	1.21	1.06	0.827	0.544	0.639	0.31	0.313	0.279	0.232	0.122	0.779	0.651	0.443	0.329	0.347
NCI-H1993	0.832	0.716	0.589	0.605	0.548	0.71	0.679	0.675	0.677	0.671	0.664	0.55	0.647	0.427	0.605	1.04	0.94	0.937	0.701	0.604
NCI-H1648	–	–	–	–	–	–	–	–	–	–	0.6	0.746	0.842	0.636	0.305	0.868	0.757	0.572	0.533	0.456
NCI-H1650	0.766	0.633	0.668	0.424	0.554	–	–	–	–	–	0.427	0.379	0.329	0.271	0.278	0.747	0.505	0.358	0.321	0.416
SW 900	0.716	0.481	0.381	0.39	0.412	–	–	–	–	–	0.397	0.272	0.455	0.303	0.299	0.508	0.545	0.494	0.406	0.381
IA-LM	0.905	0.55	0.47	0.299	0.33	0.362	0.289	0.309	0.213	0.214	–	–	–	–	–	0.494	0.504	0.485	0.256	0.404
NCI-H1563	1.03	1.04	0.879	0.82	0.87	0.991	0.867	0.862	0.893	0.757	0.731	0.799	0.777	0.655	0.665	–	–	–	–	–
HCC-44	–	–	–	–	–	0.742	0.747	0.62	0.615	0.58	0.619	0.615	0.625	0.589	0.604	0.973	0.925	0.993	0.957	0.942
ABC-1	1.28	–	0.965	0.762	0.843	1.01	–	0.869	0.721	0.822	–	–	–	–	–	0.7	0.776	0.819	0.986	0.912
NCI-H522	–	–	–	–	–	–	–	–	–	–	1.08	1.2	0.886	0.973	0.839	0.633	0.677	0.621	0.67	0.542
NCI-H1792	–	–	–	–	–	0.699	0.643	0.345	0.293	0.281	0.681	0.332	0.416	0.157	0.118	0.301	0.279	0.208	0.169	0.122
